Measurements from patent US11773063B1, “Pharmaceutically acceptable salts and compositions thereof” (priority 2022, dated 2023).
Counter-ions that a name gives are not always drawn.

Legend:
[1] = Polymorphism screen of hydrochloride and benzoate salts: thermal cycling, evaporation, antisolvent addition, cooling (XRPD); type: physicochemical; conditions: solvent per experiment: -01 1,4-Dioxane, -02 1-Propanol, -03 2-Butanol, -05 2-Methyltetrahydrofuran, -06 2-Propanol, -07 Acetone, -08 Acetonitrile, -09 Anisole, -10 Chlorobenzene, -11 Ethanol, -12 Ethyl acetate, -13 Isopropyl acetate, -14 Methanol, -15 Propyl acetate, -16 Methylethyl ketone; for XRPD Result / 3-day Observations: hydrochloride salt, three days; for XRPD Result: solid isolated after thermal cycle between ambient and 40° C., -20 iso-Prop; for 3-day Observations: thermally cycled between ambient and 40° C., -17 Forma; for 3-day Observations / Initial Observations: -04 2-Ethoxyethanol; for Initial Observations: thermal cycle of lyophilised hydrochloride salt (~40 mg), solvent added, -17 Formamide
Procedure: Twenty five of the lyophilised samples were treated with solvent and thermally cycled between ambient and 40° C. with four hours spent under each condition. After three days and solids were isolated by centrifuge filtration and analysed by XRPD.
(§1) Twelve samples of the lyophilised material were treated with a minimal volume (ca 0.5 ml) of warm solvent, syringe filtered through a 0.22 µm filter and added to a clean HPLC vial and allowed to evaporate at RT. The solvents used and XRPD results following evaporation are detailed in the Table below:
as §1, with “micrometre” for “µm”
For antisolvent additions thirteen samples of the lyophilised material were dissolved in a small amount of hot solvent (^˜0.5 ml). […] A large excess of antisolvent was then added, the vials sealed. After storage at RT overnight, and samples where no solid had been produced were first cooled to 4° C. for ˜24 hrs, and again if no solid was produced, they were cooled to −18° C. Any solids were isolated by centrifuge filtration and analysed by XRPD.
For the cooling experiments twelve samples of the lyophilised material were dissolved in a small amount of hot solvent (^˜[…]) and syringe filtered through a 0.22 μm filter into a clean HPLC vial. Samples were allowed to cool to RT, and if no solid was produced to 4° C. and then to −18° C. Solids were isolated by centrifuge filtration and analysed by XRPD.

[2] = Thermo-Gravimetric Analysis (TGA), thermal stability; conditions: 10° C./min; for thermal stability up to (TGA): nitrogen
Procedure: Thermo—Gravimetric Analysis (TGA)
TGA thermograms were obtained with a TA Instrument Discovery 550 in Al pans. The heating rate used was 10° C./min linear ramp from 25 to 400° C. with a nitrogen purging at a rate of 60 ml/min. TGA thermograms were analysed using TRIOS software.

[3] = Dynamic Vapor Sorption (DVS), salt screen and scale-up salts; type: physicochemical; conditions: 25° C.
Procedure: Dynamic Vapor Sorption (DVS)
DVS analyses were performed on TA Instrument DVS Q5000. Samples were added to a pre-tared metallised quartz crucible and run at 25° C. from 40% RH to 90% RH, down to zero and back to 40%. This cycle was repeated in increments of 10% RH.

[4] = listed as DJP2202-007-01, hydrochloride
[5] = listed as DJP2202-007-14, hydrochloride

Compound	XRPD Result [1]	3-day Observations [1]	Initial Observations [1]	other results
COc1ccc2[nH]cc(CCN(C)C)c2c1.Cl [DJP2202-007-02]	Pattern 1	few crystals	no change	
COc1ccc2[nH]cc(CCN(C)C)c2c1.Cl [DJP2202-007-03]	Pattern 1	few crystals	no change	
COc1ccc2[nH]cc(CCN(C)C)c2c1.Cl [DJP2202-007-04]		clear solution	dissolved	
COc1ccc2[nH]cc(CCN(C)C)c2c1.Cl [DJP2202-007-05]	Pattern 1	few crystals	no change	
COc1ccc2[nH]cc(CCN(C)C)c2c1.Cl [DJP2202-007-06]	Pattern 1	few crystals	no change	
COc1ccc2[nH]cc(CCN(C)C)c2c1.Cl [DJP2202-007-07]	Pattern 1	few crystals	no change	
COc1ccc2[nH]cc(CCN(C)C)c2c1.Cl [DJP2202-007-08]	Pattern 1		no change	
COc1ccc2[nH]cc(CCN(C)C)c2c1.Cl [DJP2202-007-09]	Pattern 1		no change	
COc1ccc2[nH]cc(CCN(C)C)c2c1.Cl [DJP2202-007-10]	Pattern 1	white solid	no change	
COc1ccc2[nH]cc(CCN(C)C)c2c1.Cl [DJP2202-007-11]	Pattern 1	white solid	no change	
COc1ccc2[nH]cc(CCN(C)C)c2c1.Cl [DJP2202-007-12]	Pattern 1	white solid	no change	
COc1ccc2[nH]cc(CCN(C)C)c2c1.Cl [DJP2202-007-13]	Pattern 1	white solid	no change	
COc1ccc2[nH]cc(CCN(C)C)c2c1.Cl [DJP2202-007-15]	Pattern 1		no change	
COc1ccc2[nH]cc(CCN(C)C)c2c1.Cl [DJP2202-007-16]	Pattern 2	white crystals	no change	
COc1ccc2[nH]cc(CCN(C)C)c2c1.Cl [DJP2202-007-17]		few crystals	dissolved	
COc1ccc2[nH]cc(CCN(C)C)c2c1.Cl [DJP2202-007-18]		clear solution	dissolved	

Compound	XRPD Result [1]	3-day Observations [1]	Initial Observations [1]	other results
COc1ccc2[nH]cc(CCN(C)C)c2c1.Cl [DJP2202-007-19]		clear solution	no change	
COc1ccc2[nH]cc(CCN(C)C)c2c1.Cl [DJP2202-007-20]	Pattern 1	few crystals	no change	
COc1ccc2[nH]cc(CCN(C)C)c2c1.Cl [DJP2202-007-21]	Pattern 1	few crystals	no change	
COc1ccc2[nH]cc(CCN(C)C)c2c1.Cl [DJP2202-007-22]	Pattern 1	few crystals	no change	
COc1ccc2[nH]cc(CCN(C)C)c2c1.Cl [DJP2202-007-23]		clear solution	dissolved	
COc1ccc2[nH]cc(CCN(C)C)c2c1.Cl [DJP2202-007-24]		clear solution	dissolved	
COc1ccc2[nH]cc(CCN(C)C)c2c1.Cl [DJP2202-007-25]		clear solution	dissolved	
COc1ccc2[nH]cc(CCN(C)C)c2c1.Cl [Hydrochloride pattern 2, 5-MeO-DMT hydrochloride]				XRPD Result [1, 4]: Pattern 2; 3-day Observations [1, 4]: solid mass; Initial Observations [1, 4]: no change; start of decomposition / complete mass loss (TGA) ([2]; hydrochloride): around 256 °C
COc1ccc2[nH]cc(CCN(C)C)c2c1.Cl [Hydrochloride pattern 3, 5-MeO-DMT hydrochloride]				XRPD Result [1, 5]: Pattern 3; 3-day Observations [1, 5]: clear solution; Initial Observations [1, 5]: dissolved; start of decomposition / complete mass loss (TGA) ([2]; hydrochloride): around 260 °C
COc1ccc2[nH]cc(CCN(C)C)c2c1 [Ketoglutarate salt, 5-MeO-DMT ketoglutarate]				water uptake at 40% RH ([3]; first sorption isotherm): 0.13 % w/w; deliquescence during DVS ([3]; high RH): deliquesce at high RH
COc1ccc2[nH]cc(CCN(C)C)c2c1 [Saccharinate salt, 5-MeO-DMT saccharinate]				thermal stability up to (TGA) [2]: 200 °C
COc1ccc2[nH]cc(CCN(C)C)c2c1.O=C(O)c1ccccc1 [benzoate salt pattern 2, 5-MeO-DMT benzoate]				thermal stability up to (TGA) [2]: ~170 °C
COc1ccc2[nH]cc(CCN(C)C)c2c1.O=C(O)c1ccccc1 [benzoate salt pattern 3, 5-MeO-DMT benzoate]				start of decomposition / complete mass loss (TGA) [2]: approximately 190 °C
COc1ccc2[nH]cc(CCN(C)C)c2c1.O=C(O)c1ccccc1 [benzoate salt pattern 4, 5-MeO-DMT benzoate]				start of decomposition / complete mass loss (TGA) [2]: approximately 190 °C; thermal stability up to (TGA) [2]: approximately 190 °C
COc1ccc2[nH]cc(CCN(C)C)c2c1 [free base, 5-methoxy-N,N-dimethyltryptamine]				thermal stability up to (TGA) [2]: 150 °C
